For 17 compounds, MIC and IC50 results are on record in patent US8063221B2, “Aminoquinolones as GSK-3 inhibitors” (Kyorin Pharmaceutical Co., Ltd., priority 2006, dated 2011).

Each structure is given as a SMILES string. In brackets after ≈: the same amount, converted by molar mass.

For one experiment, the system named is E. coli, ATCC8739. Nature of the experiment: Antibacterial activity (MIC), E. coli. The class given is cell-based. The following applies: Escherichia coli, ATCC8739, Table 1; E. coli ATCC8739; read-out: Antibacterial MIC (μM) E.Coli. An excerpt:
(§1) As used herein, a minimum inhibitory concentration (MIC) for bacterial growth assay is the lowest level of a compound needed to cause an inhibition to bacterial growth in culture medium. In certain embodiments, the antibacterial activity of compounds herein, measured as MIC.
(§2) In certain embodiments, GSK3 inhibitors provided herein are substantially free of antibacterial activity or having very low antibacterial activity. The antibacterial activity can be measured by methods known in the art by estimating a minimum inhibitory concentration (MIC) for test compounds. A MIC is the lowest level of a compound needed to cause an inhibition to bacterial growth in a culture medium. […] (Clinical and Laboratory Standards Institute. Methods for Dilution Antimicrobial Susceptibility Tests for Bacteria That Grow Aerobically; Approved Standard-Sixth Edition: CLSI document […]. CLSI, Wayne, Pa. (2003))
(§3) Antibacterial activity for E. coli, ATCC8739 andS. aureus Smith expressed as MIC (μM) is provided as follows: […]
Turning to `Nc1c(F)c(NCCCc2ccccc2)c(F)c2c1c(=O)ccn2C1CCCC1` [compound 72], the MIC (usually the smallest concentration in the dilution series that meets the test's criterion for growth inhibition) was in the range of 10 to 50 µM (≈ 3.97 to 19.9 µg/mL).
On the same count and under the same terms, to `Nc1c(F)c(NCCc2ccncc2)c(F)c2c1c(=O)c(C(=O)O)cn2C1CCCC1` [compound 53] belongs 10 to 50 µM (≈ 4.28 to 21.4 µg/mL); to `CC(C)(C)OC(=O)NCCNc1c(F)c(N)c2c(=O)c(C(=O)O)cn(C3CC3)c2c1F` [compound 21], 0.5 to 10 µM (≈ 0.219 to 4.38 µg/mL).
With `COc1c(NCCNc2ccccc2)c(F)c(N)c2c(=O)c(C(=O)O)cn(C3CC3)c12` [compound 84], the MIC was 10 to 50 µM (≈ 4.26 to 21.3 µg/mL).
On the same count and under the same terms, to `Nc1c(F)c(NCCc2ccncc2)c(F)c2c1c(=O)c(C(=O)O)cn2C1CC1` [compound 3] belongs 0.5 to 10 µM (≈ 0.2 to 4 µg/mL); to `Nc1c(F)c(NCCCCc2ccccc2)c(F)c2c1c(=O)ccn2C1CC1` [compound 57], 10 to 50 µM (≈ 3.83 to 19.2 µg/mL); to `CC(C)(C)OC(=O)NCCNc1c(F)c(N)c2c(=O)ccn(C3CC3)c2c1F` [compound 29], more than 50 µM.
For the compound `COc1c(NCCCc2ccccc2)c(F)c(N)c2c(=O)c(C(=O)O)cn(C3CC3)c12` [compound 67], the MIC lay within 10 to 50 µM (≈ 4.25 to 21.3 µg/mL).
Still for that read-out and setting: to `Nc1c(F)c(NCCCn2ccnc2)c(F)c2c1c(=O)c(C(=O)O)cn2C1CCCC1` [compound 54] belongs more than 50 µM; to `COc1c(NCCc2ccncc2)c(F)c(N)c2c(=O)c(C(=O)O)cn(C3CC3)c12` [compound 68], 10 to 50 µM (≈ 4.12 to 20.6 µg/mL); to `Nc1c(F)c(NCCc2ccncc2)c(F)c2c1c(=O)c(C(=O)O)cn2CCc1ccccc1` [compound 47], 10 to 50 µM (≈ 4.64 to 23.2 µg/mL).
On the same count and under the same terms, to `Nc1c(F)c(NCCNc2ccccn2)c(F)c2c1c(=O)ccn2C1CC1` [compound 15] belongs more than 50 µM; to `Nc1c(F)c(NCCc2ccncc2)c(F)c2c1c(=O)ccn2C1CCCC1` [compound 73], more than 50 µM.
On the same count and under the same terms, in the case of `Nc1c(F)c(NCCCc2ccccc2)c(F)c2c1c(=O)c(C(=O)O)cn2CCc1ccccc1` [compound 46] it was 10 to 50 µM (≈ 4.78 to 23.9 µg/mL); in that of `CC(C)OCCCNc1c(F)c(N)c2c(=O)c(C(=O)O)cn(CCc3ccccc3)c2c1F` [compound 50], 0.5 to 10 µM (≈ 0.23 to 4.59 µg/mL).
`COc1c(NCCc2ccncc2)c(F)c(N)c2c(=O)c(C(=O)O)cn(C3CCCC3)c12` [compound 80]: the MIC was more than 50 µM.

Staying with this experiment, now noted: Escherichia coli, ATCC8739, Table 2; E. coli ATCC8739; read-out: Antimicrobial MIC [μM] E. Coli.
Consider `COc1c(NCCCc2ccccc2)c(F)c(N)c2c(=O)ccn(C3CC3)c12` [compound 1], for which the MIC was in the range of 10 to 50 µM (≈ 3.81 to 19.1 µg/mL).

A further experiment concerns S. aureus Smith. Nature of the experiment: Antibacterial activity (MIC), S. aureus. It is filed as cell-based. The following applies: Staphylococcus aureus, Table 1; read-out: Antibacterial MIC (μM) S. aureus Smith.
Excerpt: as §1, §2, §3
As for `Nc1c(F)c(NCCCc2ccccc2)c(F)c2c1c(=O)ccn2C1CCCC1` [compound 72], the MIC lay within 10 to 50 µM (≈ 3.97 to 19.9 µg/mL).
The same measure, in the same setting: to `Nc1c(F)c(NCCc2ccncc2)c(F)c2c1c(=O)c(C(=O)O)cn2C1CCCC1` [compound 53] belongs 10 to 50 µM (≈ 4.28 to 21.4 µg/mL); to `CC(C)(C)OC(=O)NCCNc1c(F)c(N)c2c(=O)c(C(=O)O)cn(C3CC3)c2c1F` [compound 21], 0.5 to 10 µM (≈ 0.219 to 4.38 µg/mL).
In the case of `COc1c(NCCNc2ccccc2)c(F)c(N)c2c(=O)c(C(=O)O)cn(C3CC3)c12` [compound 84], the MIC fell in the range of 0.5 to 10 µM (≈ 0.213 to 4.26 µg/mL).
Take `Nc1c(F)c(NCCc2ccncc2)c(F)c2c1c(=O)c(C(=O)O)cn2C1CC1` [compound 3]: the MIC is less than 0.5 µM.
The same measure, in the same setting: in the case of `Nc1c(F)c(NCCCCc2ccccc2)c(F)c2c1c(=O)ccn2C1CC1` [compound 57] it was 10 to 50 µM (≈ 3.83 to 19.2 µg/mL); in that of `CC(C)(C)OC(=O)NCCNc1c(F)c(N)c2c(=O)ccn(C3CC3)c2c1F` [compound 29], more than 50 µM.
Still for that read-out and setting: to `COc1c(NCCCc2ccccc2)c(F)c(N)c2c(=O)c(C(=O)O)cn(C3CC3)c12` [compound 67] belongs 0.5 to 10 µM (≈ 0.213 to 4.25 µg/mL); to `Nc1c(F)c(NCCCn2ccnc2)c(F)c2c1c(=O)c(C(=O)O)cn2C1CCCC1` [compound 54], more than 50 µM.
Still for that read-out and setting: to `COc1c(NCCc2ccncc2)c(F)c(N)c2c(=O)c(C(=O)O)cn(C3CC3)c12` [compound 68] belongs 0.5 to 10 µM (≈ 0.206 to 4.12 µg/mL); to `Nc1c(F)c(NCCc2ccncc2)c(F)c2c1c(=O)c(C(=O)O)cn2CCc1ccccc1` [compound 47], 10 to 50 µM (≈ 4.64 to 23.2 µg/mL).
Take `Nc1c(F)c(NCCNc2ccccn2)c(F)c2c1c(=O)ccn2C1CC1` [compound 15]: the MIC is more than 50 µM.
`Nc1c(F)c(NCCc2ccncc2)c(F)c2c1c(=O)ccn2C1CCCC1` [compound 73]: the MIC was more than 50 µM.
The same measure, in the same setting: in the case of `Nc1c(F)c(NCCCc2ccccc2)c(F)c2c1c(=O)c(C(=O)O)cn2CCc1ccccc1` [compound 46] it was 10 to 50 µM (≈ 4.78 to 23.9 µg/mL); in that of `CC(C)OCCCNc1c(F)c(N)c2c(=O)c(C(=O)O)cn(CCc3ccccc3)c2c1F` [compound 50], 0.5 to 10 µM (≈ 0.23 to 4.59 µg/mL); in that of `COc1c(NCCc2ccncc2)c(F)c(N)c2c(=O)c(C(=O)O)cn(C3CCCC3)c12` [compound 80], 10 to 50 µM (≈ 4.4 to 22 µg/mL).

The experiment is the same for the next values; noted with them: Staphylococcus aureus, Table 2; S. aureus Smith; read-out: Antimicrobial MIC [μM] S. aureus.
As for `COc1c(NCCCc2ccccc2)c(F)c(N)c2c(=O)ccn(C3CC3)c12` [compound 1], the MIC lay within 10 to 50 µM (≈ 3.81 to 19.1 µg/mL).

For another experiment, the target named is T1, recombinant full-length human GSK3β (Homo sapiens, UniProt P49841).
T1 construct: recombinant full-length human GSK3β (Upstate); purchased Upstate
T1 sequence (P49841 whole entry): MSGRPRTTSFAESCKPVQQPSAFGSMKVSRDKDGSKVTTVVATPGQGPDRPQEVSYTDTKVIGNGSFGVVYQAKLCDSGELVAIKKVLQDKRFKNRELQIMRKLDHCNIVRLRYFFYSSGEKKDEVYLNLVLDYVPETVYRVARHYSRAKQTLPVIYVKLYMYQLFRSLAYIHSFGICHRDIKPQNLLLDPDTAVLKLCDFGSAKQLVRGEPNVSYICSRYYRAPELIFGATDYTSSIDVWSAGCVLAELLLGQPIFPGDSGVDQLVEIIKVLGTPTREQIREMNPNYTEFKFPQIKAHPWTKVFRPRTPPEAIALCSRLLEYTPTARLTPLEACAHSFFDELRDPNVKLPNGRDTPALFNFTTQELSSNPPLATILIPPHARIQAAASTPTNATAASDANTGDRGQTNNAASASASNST
Description: Luciferase-coupled cell-free GSK3β kinase assay. It is filed as biochemical. As to conditions: Table 1. In outline:
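GSK3β, 10-25 ng, was incubated with compound for 1 h at 30° C in MOPS pH 7.0 buffer containing 62.5 μM phospho-glycogen synthase peptide-2 and 5 μM ATP. Remaining ATP was read by KinaseGlo luminescence, and IC50 was fitted from % inhibition relative to maximal inhibition.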
As for `Nc1c(F)c(NCCCc2ccccc2)c(F)c2c1c(=O)ccn2C1CCCC1` [compound 72], the IC50 (as a rule, the midpoint of a concentration-inhibition curve) is less than 100 nM.
Still for that read-out and setting: to `Nc1c(F)c(NCCc2ccncc2)c(F)c2c1c(=O)c(C(=O)O)cn2C1CCCC1` [compound 53] belongs 100 to 500 nM.
Same read-out and setting: to `CC(C)(C)OC(=O)NCCNc1c(F)c(N)c2c(=O)c(C(=O)O)cn(C3CC3)c2c1F` [compound 21] belongs 500 to 1000 nM; to `COc1c(NCCNc2ccccc2)c(F)c(N)c2c(=O)c(C(=O)O)cn(C3CC3)c12` [compound 84], 100 to 500 nM; to `Nc1c(F)c(NCCc2ccncc2)c(F)c2c1c(=O)c(C(=O)O)cn2C1CC1` [compound 3], 100 to 500 nM.
Still for that read-out and setting: in the case of `Nc1c(F)c(NCCCCc2ccccc2)c(F)c2c1c(=O)ccn2C1CC1` [compound 57] it was 500 to 1000 nM.
As to `CC(C)(C)OC(=O)NCCNc1c(F)c(N)c2c(=O)ccn(C3CC3)c2c1F` [compound 29], the IC50 fell in the range of 100 to 500 nM.
Still for that read-out and setting: in the case of `COc1c(NCCCc2ccccc2)c(F)c(N)c2c(=O)c(C(=O)O)cn(C3CC3)c12` [compound 67] it was less than 100 nM; in that of `Nc1c(F)c(NCCCn2ccnc2)c(F)c2c1c(=O)c(C(=O)O)cn2C1CCCC1` [compound 54], less than 100 nM; in that of `COc1c(NCCc2ccncc2)c(F)c(N)c2c(=O)c(C(=O)O)cn(C3CC3)c12` [compound 68], 500 to 1000 nM.
Still for that read-out and setting: to `Nc1c(F)c(NCCc2ccncc2)c(F)c2c1c(=O)c(C(=O)O)cn2CCc1ccccc1` [compound 47] belongs less than 100 nM.
Same read-out and setting: to `Nc1c(F)c(NCCNc2ccccn2)c(F)c2c1c(=O)ccn2C1CC1` [compound 15] belongs 100 to 500 nM; to `Nc1c(F)c(NCCc2ccncc2)c(F)c2c1c(=O)ccn2C1CCCC1` [compound 73], less than 100 nM.
Consider `Nc1c(F)c(NCCCc2ccccc2)c(F)c2c1c(=O)c(C(=O)O)cn2CCc1ccccc1` [compound 46], for which the IC50 is less than 100 nM.
On the same count and under the same terms, in the case of `CC(C)OCCCNc1c(F)c(N)c2c(=O)c(C(=O)O)cn(CCc3ccccc3)c2c1F` [compound 50] it was 500 to 1000 nM.
The same measure, in the same setting: in the case of `COc1c(NCCc2ccncc2)c(F)c(N)c2c(=O)c(C(=O)O)cn(C3CCCC3)c12` [compound 80] it was more than 1000 nM.

Still in this experiment, the particulars now being: Table 2.
Turning to `COc1c(NCCCc2ccccc2)c(F)c(N)c2c(=O)ccn(C3CC3)c12` [compound 1], the IC50 lay in the range of 100 to 500 nM.
